# Target: Metabotropic glutamate receptor 1 (Rattus norvegicus, UniProt P23385)
# Assay: Inhibition of rat mGluR1
# Settings: read-out: IC50
# Metabotropic glutamate receptor 1, sequence (P23385 whole entry): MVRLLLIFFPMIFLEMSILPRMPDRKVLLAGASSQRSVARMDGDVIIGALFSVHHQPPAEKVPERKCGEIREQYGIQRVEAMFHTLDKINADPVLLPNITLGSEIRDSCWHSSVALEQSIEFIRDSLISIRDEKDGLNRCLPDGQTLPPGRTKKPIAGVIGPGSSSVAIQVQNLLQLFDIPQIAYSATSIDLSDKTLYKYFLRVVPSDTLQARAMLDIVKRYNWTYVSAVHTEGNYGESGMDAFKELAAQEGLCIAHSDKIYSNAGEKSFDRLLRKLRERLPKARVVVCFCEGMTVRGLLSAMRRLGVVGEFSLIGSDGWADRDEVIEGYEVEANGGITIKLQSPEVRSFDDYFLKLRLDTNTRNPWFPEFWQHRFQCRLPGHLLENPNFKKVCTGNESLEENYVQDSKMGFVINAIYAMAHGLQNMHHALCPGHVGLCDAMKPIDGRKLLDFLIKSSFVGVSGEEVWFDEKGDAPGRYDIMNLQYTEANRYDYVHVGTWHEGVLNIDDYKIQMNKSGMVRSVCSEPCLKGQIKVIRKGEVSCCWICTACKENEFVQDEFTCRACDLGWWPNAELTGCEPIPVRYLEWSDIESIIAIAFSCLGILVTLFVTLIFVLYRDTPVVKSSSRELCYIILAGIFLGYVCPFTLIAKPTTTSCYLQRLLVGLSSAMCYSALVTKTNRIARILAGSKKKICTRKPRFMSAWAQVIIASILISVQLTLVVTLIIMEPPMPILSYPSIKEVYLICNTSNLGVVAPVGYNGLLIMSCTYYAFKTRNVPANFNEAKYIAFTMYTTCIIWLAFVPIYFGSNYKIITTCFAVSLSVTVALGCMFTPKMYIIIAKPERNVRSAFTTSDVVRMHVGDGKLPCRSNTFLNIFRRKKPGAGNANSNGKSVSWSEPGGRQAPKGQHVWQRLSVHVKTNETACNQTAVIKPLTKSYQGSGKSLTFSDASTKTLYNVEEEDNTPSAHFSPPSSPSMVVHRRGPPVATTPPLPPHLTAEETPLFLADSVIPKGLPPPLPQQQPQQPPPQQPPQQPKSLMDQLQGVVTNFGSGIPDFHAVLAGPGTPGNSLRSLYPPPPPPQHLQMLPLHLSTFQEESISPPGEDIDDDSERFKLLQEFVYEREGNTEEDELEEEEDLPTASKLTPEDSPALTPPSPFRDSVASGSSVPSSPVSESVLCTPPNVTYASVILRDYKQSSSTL
row,IC50 [nM],Structure (SMILES)
1,13,CN(C)c1ccnc2sc3c(=O)n(C4CCCCCCC4)cnc3c12
2,5,Cc1ccc(-n2cnc3c(sc4nccc(N(C)C)c43)c2=O)cc1
3,37,CCc1ccc(-n2cnc3c(sc4nccc(N(C)CC)c43)c2=O)cc1
4,335,CCC(CC)n1cnc2c(sc3nccc(N(C)C)c32)c1=O
5,139,CN(C)c1ccnc2sc3c(=O)n(CC4CCCCC4)cnc3c12
6,9,CCc1cccc(-n2cnc3c(sc4nccc(N(C)C)c43)c2=O)c1
7,41,CCc1ccc(-n2cnc3c(sc4nccc(NC5CC5)c43)c2=O)cc1
8,632,CN(C)c1ccnc2sc3c(=O)n(C4CC4)cnc3c12
9,140,CC1CCC(n2cnc3c(sc4nccc(N(C)C)c43)c2=O)CC1 (stereo unspecified)
10,76,CN(C)c1ccnc2sc3c(=O)n(C45CC6CC(CC(C6)C4)C5)cnc3c12
11,17,Cc1ccc(-n2cnc3c(sc4nccc(N(C)C)c43)c2=O)c(C)c1
12,32,CN(C)c1ccnc2sc3c(=O)n(-c4ccc(C(F)(F)F)cc4)cnc3c12
13,20,CN(C)c1ccnc2sc3c(=O)n(-c4ccccc4)cnc3c12
14,5,CN(C)c1ccnc2sc3c(=O)n(C4CCCC4)cnc3c12
15,130,CC1CCCCC1n1cnc2c(sc3nccc(N(C)C)c32)c1=O (stereo unspecified)
16,44,CCc1ccc(-n2c(C)nc3c(sc4nccc(N(C)C)c43)c2=O)cc1
17,45,CN(C)c1ccnc2sc3c(=O)n(-c4ccc(Cl)cc4Cl)cnc3c12
18,1,CN(C)c1ccnc2sc3c(=O)n(C4CCCCCC4)cnc3c12
19,23,CN(C)c1ccnc2sc3c(=O)n(-c4ccc(F)cc4)cnc3c12
20,71,CCc1ccc(-n2cnc3c(sc4nccc(N(C)CCOC)c43)c2=O)cc1
21,113,CCc1ccc(-n2cnc3c(sc4nccc(N5CCC5)c43)c2=O)cc1
22,84,CCc1ccc(-n2c(CC)nc3c(sc4nccc(N(C)C)c43)c2=O)cc1
23,8500,CN(C)c1ccnc2sc3c(=O)n(-c4ccc(C(C)(C)C)cc4)cnc3c12

row,IC50 [nM],Structure (SMILES)
1,16,CN(C)c1ccnc2sc3c(=O)n(-c4ccc(Cl)cc4)cnc3c12
2,4,CN(C)c1ccnc2sc3c(=O)n(-c4ccc(Br)cc4)cnc3c12
3,407,CC(C)c1ccc(-n2cnc3c(sc4nccc(N(C)C)c43)c2=O)cc1
4,98,CCc1ccc(-n2cnc3c(sc4nccc(NC)c43)c2=O)cc1
5,251,CCc1ccccc1-n1cnc2c(sc3nccc(N(C)C)c32)c1=O
6,99,CCc1ccc(-n2cnc3c(sc4nccc(NCC(F)(F)F)c43)c2=O)cc1
7,3,CCc1ccc(-n2cnc3c(sc4nccc(N(C)C)c43)c2=O)cc1
8,167,CN(C)c1ccnc2sc3c(=O)n(C4CCC4)cnc3c12
9,10,CN(C)c1ccnc2sc3c(=O)n(N4CCCCCC4)cnc3c12
10,26,CN(C)c1ccnc2sc3c(=O)n(CC4CCCC4)cnc3c12
11,87,CN(C)c1ccnc2sc3c(=O)n(-c4ccc(C5CC5)cc4)cnc3c12
12,101,CCCCc1nc2c(sc3nccc(N(C)C)c32)c(=O)n1-c1ccc(CC)cc1
13,281,CN(C)c1ccnc2sc3c(=O)n(Cc4ccccc4)cnc3c12
14,482,CC1CCCC(n2cnc3c(sc4nccc(N(C)C)c43)c2=O)C1 (stereo unspecified)
15,50,CN(C)c1ccnc2sc3c(=O)n(C4CCCCC4)cnc3c12
16,39,COc1ccc(-n2cnc3c(sc4nccc(N(C)C)c43)c2=O)cn1
17,50,CN(C)c1ccnc2sc3c(=O)n(-c4ccccc4O)cnc3c12
18,306,CCc1ccc(-n2cnc3c(sc4nccc([N+](C)(C)[O-])c43)c2=O)cc1
19,180,CCCc1ccc(-n2cnc3c(sc4nccc(N(C)C)c43)c2=O)cc1
20,49,CCc1ccc(-n2cnc3c(sc4nccc(NCC#N)c43)c2=O)cc1
21,122,CN(C)c1ccnc2sc3c(=O)n(-c4ccc5cc[nH]c5c4)cnc3c12
22,167,C[N+](C)([O-])c1ccnc2sc3c(=O)n(C4CCCCCC4)cnc3c12

# Same assay, conditions: read-out: pIC50 (converted)
row,IC50 [nM],Structure (SMILES)
1,42.7,CCc1ccc(-n2cnc3c(sc4nccc(NCC#N)c43)c2=O)cc1

# From ChEMBL document CHEMBL1156680, “3D-QSAR studies of triazafluorenone inhibitors of metabotropic glutamate receptor subtype 1” (Eur J Med Chem, 2008)
